We go through 28 molecules from patent US11236069B2, “KIF18A inhibitors” (AMGEN INC., priority 2018, dated 2022).

In general, IC50 refers to the concentration at which inhibition is half-maximal.

The target in the test is Recombinant human KIF18A (1-467 His-tagged) protein (Homo sapiens (Human), UniProt Q8NI77). The experiment in a line: KIF18A Enzyme Assay: microtubule-stimulated ATPase activity (ADP-Glo). The following applies: read-out: KIF18A ATPase IC50; 30 nM KIF18A, 30 μg/mL pig microtubules, ATP at Km 75 μM, ADP-Glo luminescence. A general note: ADP-Glo first removes unused ATP, then detects ADP through luciferase.
Chain of Recombinant human KIF18A (1-467 His-tagged) protein (Q8NI77 1-467): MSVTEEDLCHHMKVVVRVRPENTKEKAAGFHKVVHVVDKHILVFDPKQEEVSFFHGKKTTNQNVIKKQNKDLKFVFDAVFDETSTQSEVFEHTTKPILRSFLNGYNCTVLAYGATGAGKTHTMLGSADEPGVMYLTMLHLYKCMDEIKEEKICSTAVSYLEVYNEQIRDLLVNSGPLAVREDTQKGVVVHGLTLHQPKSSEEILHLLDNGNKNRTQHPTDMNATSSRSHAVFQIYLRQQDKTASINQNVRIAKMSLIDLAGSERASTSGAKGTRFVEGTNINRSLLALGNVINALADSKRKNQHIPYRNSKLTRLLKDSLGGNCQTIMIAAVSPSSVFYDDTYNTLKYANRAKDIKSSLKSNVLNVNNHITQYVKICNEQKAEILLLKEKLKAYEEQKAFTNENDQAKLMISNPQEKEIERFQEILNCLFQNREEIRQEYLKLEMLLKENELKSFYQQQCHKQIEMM
Chain of Recombinant human KIF18A (1-467 His-tagged) protein (P02550 whole entry partner): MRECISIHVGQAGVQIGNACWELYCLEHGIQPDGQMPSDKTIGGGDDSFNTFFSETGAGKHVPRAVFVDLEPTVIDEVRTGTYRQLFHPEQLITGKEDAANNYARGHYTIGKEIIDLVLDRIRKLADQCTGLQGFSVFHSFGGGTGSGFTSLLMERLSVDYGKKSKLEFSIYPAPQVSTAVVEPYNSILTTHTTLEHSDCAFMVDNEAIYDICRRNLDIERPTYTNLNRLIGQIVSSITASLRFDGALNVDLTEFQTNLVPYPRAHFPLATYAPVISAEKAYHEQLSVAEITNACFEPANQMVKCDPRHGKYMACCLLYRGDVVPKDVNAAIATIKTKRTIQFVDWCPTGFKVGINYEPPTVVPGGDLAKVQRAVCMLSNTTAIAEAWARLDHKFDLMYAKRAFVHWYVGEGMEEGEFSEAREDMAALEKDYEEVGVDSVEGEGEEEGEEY
Chain of Recombinant human KIF18A (1-467 His-tagged) protein (P02554 whole entry partner): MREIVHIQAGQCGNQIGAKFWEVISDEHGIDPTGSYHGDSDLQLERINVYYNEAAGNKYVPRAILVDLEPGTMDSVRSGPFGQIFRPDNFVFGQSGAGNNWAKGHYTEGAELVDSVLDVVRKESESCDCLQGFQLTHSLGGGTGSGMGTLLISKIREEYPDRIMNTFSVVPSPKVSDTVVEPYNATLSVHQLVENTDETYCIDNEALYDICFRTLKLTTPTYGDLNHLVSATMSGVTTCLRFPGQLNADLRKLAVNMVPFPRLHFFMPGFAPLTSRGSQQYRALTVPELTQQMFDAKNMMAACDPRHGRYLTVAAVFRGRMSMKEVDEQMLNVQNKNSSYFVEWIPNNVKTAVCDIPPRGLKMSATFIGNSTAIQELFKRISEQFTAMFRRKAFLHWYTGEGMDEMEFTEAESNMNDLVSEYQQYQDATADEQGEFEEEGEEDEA
Excerpt: KIF18A Enzyme Assay: Microtubule-stimulated ATPase activity assay is used to measure KIF18A enzyme activity after treatment with compound. Compounds were 2-fold serially diluted in DMSO (Sigma Inc) over 22-point concentration range. […] The assay measures ADP formed from the ATPase reaction.
For `Cc1cc(NC(=O)c2ccc(S(C)(=O)=O)cc2N2CCC3(CC2)CC3)nc(N[C@H](C)CO)n1` [Example 1-1, (R)-N-(2-((1-Hydroxypropan-2-yl)amino)-6-methylpyrimidin-4-yl)-4-(methylsulfonyl)-2-(6-azaspiro[2.5]octan-6-yl)benzamide], the IC50 is 216 nM. The same measure for `Cc1cc(NC(=O)c2ccc(S(=N)(=O)C3COC3)cc2N2CCC3(CC2)CC3)nc(N2CCC(F)(F)CC2)n1` (stereo not shown) [Example 19-1, N-(2-(4,4-Difluoropiperidin-1-yl)-6-methylpyrimidin-4-yl)-4-(oxetane-3-sulfonimidoyl)-2-(6-azaspiro[2.5]octan-6-yl)benzamide]: 163 nM.

For `COc1cc(C(=O)Nc2cc(C)nc(N3CCC(F)(F)CC3)n2)c(N2CCC3(CC2)CC3)cc1NS(=O)(=O)CCO` [Example 6-36, N-(2-(4,4-Difluoropiperidin-1-yl)-6-methylpyrimidin-4-yl)-4-((2-hydroxyethyl)sulfonamido)-5-methoxy-2-(6-azaspiro[2.5]octan-6-yl)benzamide], the IC50 was 114 nM. Take `Cc1cc(NC(=O)c2ccc(NS(=O)(=O)CCO)cc2N2CCC3(CC2)CC3)nc(N2CCC(C#N)CC2)n1` [Example 11-33, N-(2-(4-Cyanopiperidin-1-yl)-6-methylpyrimidin-4-yl)-4-((2-hydroxyethyl)sulfonamido)-2-(6-azaspiro[2.5]octan-6-yl)benzamide]: the IC50 came to 88 nM. With `CCc1cc(NC(=O)c2ccc(NS(=O)(=O)CCO)cc2N2CCC3(CC2)CC3)nc(N2CCC(F)(F)CC2)n1` [Example 6-38, N-(2-(4,4-Difluoropiperidin-1-yl)-6-ethylpyrimidin-4-yl)-4-((2-hydroxyethyl)sulfonamido)-2-(6-azaspiro[2.5]octan-6-yl)benzamide] the figure was 60 nM; with `CC(C)(O)c1cc(NC(=O)c2ccc(NS(=O)(=O)CCO)cc2N2CCC3(CC2)CC3)nc(N2CCC(F)(F)CC2)n1` [Example 6-37, N-(2-(4,4-Difluoropiperidin-1-yl)-6-(2-hydroxypropan-2-yl)pyrimidin-4-yl)-4-((2-hydroxyethyl)sulfonamido)-2-(6-azaspiro[2.5]octan-6-yl)benzamide], 125 nM; with `C[C@H](CO)S(=O)(=O)Nc1ccc(C(=O)Nc2ccnc(N3CCC(F)(F)CC3)n2)c(N2CCC3(CC2)CC3)c1` [Example 6-26-2, (R)-N-(2-(4,4-Difluoropiperidin-1-yl)pyrimidin-4-yl)-4-((2-hydroxy-1-methylethyl)sulfonamido)-2-(6-azaspiro[2.5]octan-6-yl)benzamide], 21 nM. In the case of `C[C@@H]1CN(c2nccc(NC(=O)c3ccc(NS(=O)(=O)C[C@@H](C)O)cc3N3CCC4(CC3)CC4)n2)CCO1` [Example 6-33-2, 4-(((R)-2-hydroxypropyl)sulfonamido)-N-(2-((R)-2-methylmorpholino)pyrimidin-4-yl)-2-(6-azaspiro[2.5]octan-6-yl)benzamide], the IC50 was determined as 86 nM. With `Cc1cc(NC(=O)c2ccc(NS(=O)(=O)CCO)cc2N2CCC3(CC2)CC3)nc(N2CCC[C@@H](O)C2)n1` [Example 11-54, (R)-4-((2-Hydroxyethyl)sulfonamido)-N-(2-(3-hydroxypiperidin-1-yl)-6-methylpyrimidin-4-yl)-2-(6-azaspiro[2.5]octan-6-yl)benzamide] the figure was 74 nM.

`Cc1cc(NC(=O)c2ccc(S(=O)(=O)[C@H]3COC[C@@H]3O)cc2N2CCC3(CC2)CC3)nc(N2CCC(F)(F)CC2)n1` [Example 14-8, N-(2-(4,4-Difluoropiperidin-1-yl)-6-methylpyrimidin-4-yl)-4-(((S,4S)-4-hydroxytetrahydrofuran-3-yl)sulfonyl)-2-(6-azaspiro[2.5]octan-6-yl)benzamide]: the IC50 was determined as 97 nM. With `Cc1cc(NC(=O)c2ccc(NS(=O)(=O)C3([C@H](C)O)CC3)cc2N2CCC3(CC2)CC3)nc(N2CCC(F)(F)CC2)n1` [Example 6-31-2, (S)-N-(2-(4,4-Difluoropiperidin-1-yl)-6-methylpyrimidin-4-yl)-4-((1-(1-hydroxyethyl)cyclopropane)-1-sulfonamido)-2-(6-azaspiro[2.5]octan-6-yl)benzamide] the figure was 281 nM.

For `O=C(Nc1ccnc(N2CCC(F)(F)CC2)c1)c1ccc(S(=O)(=O)NCCO)cc1N1CCC2(CC1)CC2` [Example 17, N-(2-(4,4-Difluoropiperidin-1-yl)pyridin-4-yl)-4-(N-(2-hydroxyethyl)sulfamoyl)-2-(6-azaspiro[2.5]octan-6-yl)benzamide], the IC50 turned out to be 23 nM. With `Cc1cc(NC(=O)c2cc(F)c(NS(=O)(=O)[C@H](C)CO)cc2N2CCC3(CC2)CC3)nc(N2CCC(F)(F)CC2)n1` (single isomer, unassigned) [Example 8-1] the figure was 91 nM; with `Cc1cc(NC(=O)c2ccc(NS(=O)(=O)CF)cc2N2CCC3(CC2)CC3)nc(N2CCC(F)CC2)n1` [Example 6-1, 4-((Fluoromethyl)sulfonamido)-N-(2-(4-fluoropiperidin-1-yl)-6-methylpyrimidin-4-yl)-2-(6-azaspiro[2.5]octan-6-yl)benzamide], 62 nM; with `CC1(NS(=O)(=O)c2ccc(C(=O)Nc3ccnc(N4CCC(F)(F)CC4)c3)c(N3CCC4(CC3)CC4)c2)COC1` [Example 2-4, N-(2-(4,4-Difluoropiperidin-1-yl)pyridin-4-yl)-4-(N-(3-methyloxetan-3-yl)sulfamoyl)-2-(6-azaspiro[2.5]octan-6-yl)benzamide], 29 nM.

Turning to `Cc1cc(NC(=O)c2ccc(NS(=O)(=O)[C@H](C)CO)cc2N2CCC3(CC2)CC3)nc(N2CCC(F)CC2)n1` [Example 6-25-2, (R)-N-(2-(4-Fluoropiperidin-1-yl)-6-methylpyrimidin-4-yl)-4-((2-hydroxy-1-methylethyl)sulfonamido)-2-(6-azaspiro[2.5]octan-6-yl)benzamide], the IC50 came to 41 nM. The same measure for `Cc1cc(NC(=O)c2ccc(NS(=O)(=O)C3COC3)cc2N2CCC3(CC2)CC3)nc(N2CCC(F)(F)CC2)n1` [Example 6-12, N-(2-(4,4-Difluoropiperidin-1-yl)-6-methylpyrimidin-4-yl)-4-(oxetane-3-sulfonamido)-2-(6-azaspiro[2.5]octan-6-yl)benzamide]: 40 nM. Turning to `Cc1cc(NC(=O)c2ccc(NS(=O)(=O)C3(CO)CC3)cc2N2CCC3(CC2)CC3)nc(N2CCC(F)(F)CC2)n1` [Example 11-69], the IC50 is 99 nM. In the case of `Cc1cc(NC(=O)c2ccc(NS(=O)(=O)[C@@H](C)CO)cc2N2CCC3(CC2)CC3)nc(N2CC(F)(F)C2)n1` [Example 11-77, (S)-N-(2-(3,3-Difluoroazetidin-1-yl)-6-methylpyrimidin-4-yl)-4-((2-hydroxy-1-methylethyl)sulfonamido)-2-(6-azaspiro[2.5]octan-6-yl)benzamide], the IC50 was 34 nM. With `Cc1cc(NC(=O)c2ccc(NS(=O)(=O)CC3CC3)cc2N2CCC3(CC2)CC3)nc(N2CC(F)(F)C2)n1` [Example 11-78, 4-((Cyclopropylmethyl)sulfonamido)-N-(2-(3,3-difluoroazetidin-1-yl)-6-methylpyrimidin-4-yl)-2(6-azaspiro[2.5]octan-6-yl)benzamide] the figure was 125 nM; with `Cc1cc(NC(=O)c2ccc(S(=N)(=O)C3CC3)cc2N2CCC3(CC2)CC3)nc(N2CC(F)(F)C2)n1` (stereo not shown) [Example 19-9, 4-(Cyclopropanesulfonimidoyl)-N-(2-(3,3-difluoroazetidin-1-yl)-6-methylpyrimidin-4-yl)-2-(6-azaspiro[2.5]octan-6-yl)benzamide], 69 nM. With `Cc1cc(NC(=O)c2ccc(NS(=O)(=O)CCO)cc2N2CCC3(CC2)CC3)nc(N2CC(F)C2)n1` [Example 11-5, N-(2-(3-Fluoroazetidin-1-yl)-6-methylpyrimidin-4-yl)-4-((2-hydroxyethyl)sulfonamido)-2-(6-azaspiro[2.5]octan-6-yl)benzamide] the figure was 32 nM; with `Cc1cc(NC(=O)c2ccc(NS(=O)(=O)C[C@@H](C)O)cc2N2CCC3(CC2)CC3)nc(OCCC(F)(F)F)n1` [Example 6-28-1, (R)-4-((2-Hydroxypropyl)sulfonamido)-N-(6-methyl-2-(3,3,3-trifluoropropoxy)pyrimidin-4-yl)-2-(6-azaspiro[2.5]octan-6-yl)benzamide], 68 nM; with `Cc1cc(NC(=O)c2ccc(NS(=O)(=O)CCO)cc2N2CCC3(CC2)CC3)nc(N2CCCCC2)n1` [Example 11-36, 4-((2-Hydroxyethyl)sulfonamido)-N-(6-methyl-2-(piperidin-1-yl)pyrimidin-4-yl)-2-(6-azaspiro[2.5]octan-6-yl)benzamide], 82 nM. For the molecule `Cc1cc(NC(=O)c2ccc(NS(=O)(=O)CC3(O)COC3)cc2N2CCC3(CC2)CC3)nc(N2CCC(F)(F)CC2)n1` [Example 6-19, N-(2-(4,4-Difluoropiperidin-1-yl)-6-methylpyrimidin-4-yl)-4-(((3-hydroxyoxetan-3-yl)methyl)sulfonamido)-2-(6-azaspiro[2.5]octan-6-yl)benzamide], the IC50 is 39 nM. The same measure for `Cc1cc(NC(=O)c2ccc(S(=O)(=O)C(C)(C)C)cc2N2CCC3(CC2)CC3)nc(N2CCC(F)(F)CC2)n1` [Example 14-6, 4-(tert-Butylsulfonyl)-N-(2-(4,4-difluoropiperidin-1-yl)-6-methylpyrimidin-4-yl)-2-(6-azaspiro[2.5]octan-6-yl)benzamide]: 1880 nM. The same measure for `Cc1cc(NC(=O)c2ccc(NS(=O)(=O)CCO)cc2N2CCC3(CC2)CC3)nc(N2CCC(F)(F)C2)n1` [Example 11-30, N-(2-(3,3-Difluoropyrrolidin-1-yl)-6-methylpyrim-4-yl)-4-((2-hydroxyethyl)sulfonamido)-2-(6-azaspiro[2.5]octan-6-yl)benzamide]: 33 nM; for `Cc1cc(NC(=O)c2ccc(S(C)(=O)=O)cc2N2CCC3(CC2)CC3)nc(NCCO)n1` [Example 1-3, N-(2-((2-Hydroxyethyl)amino)-6-methylpyrimidin-4-yl)-4-(methylsulfonyl)-2-(6-azaspiro[2.5]octan-6-yl)benzamide]: 849 nM.
